Experimental data published in patent US11174268B2, “Benzenesulfonamide compouds and their use as therapeutic agents” (Xenon Pharmaceuticals Inc., priority 2016, dated 2021).
Where a name gives a salt, the structure may show the parent alone.

Key:
NaV1.1 = NaV1.1 (Homo sapiens (Human), UniProt P35498); test: Sodium Influx Assay (Flux), NaV1.1; type: cell-based; conditions: Trex HEK293 cells, ANG2 dye, inactivated state;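 also: channels co-expressed with human β1 subunit and held open by modulators, cells exposed to compounds for one hour at room temperature, IC50 from percent inhibition of influx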
NaV1.5 = NaV1.5 (Homo sapiens (Human), UniProt Q14524); test: Sodium Influx Assay (Flux), NaV1.5; conditions: read-out: Flux NaV1.5 IC50; Trex HEK293 cells, ANG2 dye, inactivated state
Sequence of NaV1.5 (Q14524 other isoform, or with tags, fused parts or gaps): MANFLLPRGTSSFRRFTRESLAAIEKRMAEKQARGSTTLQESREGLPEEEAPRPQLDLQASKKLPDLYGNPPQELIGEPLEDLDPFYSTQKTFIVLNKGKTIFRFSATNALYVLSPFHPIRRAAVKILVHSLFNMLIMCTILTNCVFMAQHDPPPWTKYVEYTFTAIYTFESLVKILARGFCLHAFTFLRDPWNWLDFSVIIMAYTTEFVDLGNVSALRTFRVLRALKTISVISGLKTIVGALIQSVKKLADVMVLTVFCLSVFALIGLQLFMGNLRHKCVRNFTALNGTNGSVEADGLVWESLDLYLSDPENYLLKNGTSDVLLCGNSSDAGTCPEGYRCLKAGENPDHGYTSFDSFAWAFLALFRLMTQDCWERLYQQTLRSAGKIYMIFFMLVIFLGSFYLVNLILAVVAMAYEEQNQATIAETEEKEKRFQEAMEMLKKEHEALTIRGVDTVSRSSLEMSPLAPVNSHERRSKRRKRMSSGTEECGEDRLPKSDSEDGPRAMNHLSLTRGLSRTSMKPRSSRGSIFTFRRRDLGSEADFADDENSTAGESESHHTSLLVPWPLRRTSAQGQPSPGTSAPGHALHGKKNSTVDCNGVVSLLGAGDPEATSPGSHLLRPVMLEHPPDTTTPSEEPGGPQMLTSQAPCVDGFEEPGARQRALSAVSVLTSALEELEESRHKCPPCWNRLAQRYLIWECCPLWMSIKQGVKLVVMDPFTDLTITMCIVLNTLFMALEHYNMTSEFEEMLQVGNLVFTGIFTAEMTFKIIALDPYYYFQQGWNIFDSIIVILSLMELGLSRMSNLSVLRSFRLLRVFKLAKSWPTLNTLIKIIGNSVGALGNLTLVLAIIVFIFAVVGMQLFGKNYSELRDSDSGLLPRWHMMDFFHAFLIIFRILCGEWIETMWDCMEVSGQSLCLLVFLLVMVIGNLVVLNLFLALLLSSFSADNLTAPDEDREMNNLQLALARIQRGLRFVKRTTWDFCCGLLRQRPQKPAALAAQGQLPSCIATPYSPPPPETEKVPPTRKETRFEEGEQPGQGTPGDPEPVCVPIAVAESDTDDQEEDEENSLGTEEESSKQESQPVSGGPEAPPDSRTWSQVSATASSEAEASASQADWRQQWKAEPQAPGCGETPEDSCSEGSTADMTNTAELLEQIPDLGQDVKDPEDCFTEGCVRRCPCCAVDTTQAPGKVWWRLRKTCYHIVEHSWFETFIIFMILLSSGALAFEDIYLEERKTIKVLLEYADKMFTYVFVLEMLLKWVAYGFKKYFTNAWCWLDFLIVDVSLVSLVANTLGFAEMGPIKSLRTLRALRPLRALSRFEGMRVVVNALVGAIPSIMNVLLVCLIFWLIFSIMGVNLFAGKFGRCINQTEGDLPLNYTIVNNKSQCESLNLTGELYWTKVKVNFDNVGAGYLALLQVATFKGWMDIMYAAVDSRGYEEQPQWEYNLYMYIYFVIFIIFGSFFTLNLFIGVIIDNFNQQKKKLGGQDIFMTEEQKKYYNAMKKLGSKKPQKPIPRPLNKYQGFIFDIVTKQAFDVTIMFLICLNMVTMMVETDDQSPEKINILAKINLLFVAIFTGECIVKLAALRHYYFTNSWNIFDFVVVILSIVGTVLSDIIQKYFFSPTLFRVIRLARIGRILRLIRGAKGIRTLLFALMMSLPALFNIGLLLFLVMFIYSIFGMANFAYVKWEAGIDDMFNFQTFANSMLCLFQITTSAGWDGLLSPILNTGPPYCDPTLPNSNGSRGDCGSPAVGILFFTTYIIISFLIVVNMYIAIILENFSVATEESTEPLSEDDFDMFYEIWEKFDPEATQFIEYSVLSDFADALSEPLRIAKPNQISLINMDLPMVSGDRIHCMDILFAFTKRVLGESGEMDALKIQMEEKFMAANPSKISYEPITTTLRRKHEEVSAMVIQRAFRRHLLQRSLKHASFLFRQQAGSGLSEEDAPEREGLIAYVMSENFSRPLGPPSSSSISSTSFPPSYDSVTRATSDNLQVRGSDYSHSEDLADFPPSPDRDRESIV

NaV1.6 = NaV1.6 (Homo sapiens (Human), UniProt Q9UQD0); test: Sodium Influx Assay (Flux), NaV1.6; type: cell-based; conditions: Trex HEK293 cells, ANG2 dye, inactivated state;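 also: Tetracycline-induced cells, compounds applied for one hour at room temperature with modulators holding channels open, IC50 from percent inhibition of sodium influx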

Row | SMILES | IC50 (NaV1.1) [µM] | IC50 (NaV1.6) [nM] | IC50 (NaV1.5) [µM]
1 | O=S(=O)(Nc1cscn1)c1cc(Cl)c(NCc2ccccc2CCN2CCC2)cc1F [Example 261, 4-((2-(2-(azetidin-1-yl)ethyl)benzyl)amino)-5-chloro-2-fluoro-N-(thiazol-4-yl)benzenesulfonamide formate] | 28.9 | 146 | 26.3
2 | O=S(=O)(Nc1cscn1)c1cc(Cl)c(NCc2cc(CCN3CCC3)ccc2F)cc1F [Example 262, 4-((5-(2-(azetidin-1-yl)ethyl)-2-fluorobenzyl)amino)-5-chloro-2-fluoro-N-(thiazol-4-yl)benzenesulfonamide formate] | 8.29 | 1420 | 7.32
3 | O=S(=O)(Nc1cscn1)c1cc(Cl)c(NCc2cc(CCN3CC(F)C3)ccc2F)cc1F [Example 263, 5-chloro-2-fluoro-4-((2-fluoro-5-(2-(3-fluoroazetidin-1-yl)ethyl)benzyl)amino)-N-(thiazol-4-yl)benzenesulfonamide formate] | 7.71 | 1020 | 4.78
4 | O=S(=O)(Nc1cscn1)c1cc(Cl)c(N[C@H]2C[C@H](N3CCC3)c3ccccc32)cc1F [Example 264, 4-(((1S,3S)-3-(azetidin-1-yl)-2,3-dihydro-1H-inden-1-yl)amino)-5-chloro-2-fluoro-N-(thiazol-4-yl)benzenesulfonamide formate] | 30 | 30000 | 30
5 | C[C@H](Nc1cc(F)c(S(=O)(=O)Nc2ncc(Cl)s2)cc1Cl)c1ccccc1F [Example 267, (S)-5-chloro-2-fluoro-4-((1-(2-fluorophenyl)ethyl)amino)-N-(5-chlorothiazol-2-yl)benzenesulfonamide] | 3.58 | 959 | 6.96
6 | Cc1cc(N[C@@H](C)c2ccccc2F)c(Cl)cc1S(=O)(=O)Nc1nccs1 [Example 269, (S)-5-chloro-4-((1-(2-fluorophenyl)ethyl)amino)-2-methyl-N-(thiazol-2-yl)benzenesulfonamide] | 2.78 | 584 | 6.72
7 | CN(C)Cc1ccccc1CNc1cc(F)c(S(=O)(=O)Nc2cscn2)c(F)c1 [Example 271, 4-((2-((dimethylamino)methyl)benzyl)amino)-2,6-difluoro-N-(thiazol-4-yl)benzenesulfonamide] | 30 | 448 | 30
8 | CC[C@H](Nc1cc(F)c(S(=O)(=O)Nc2ccncn2)c(F)c1)c1cc(F)ccc1Cl [Example 276, (S)-4-((1-(2-chloro-5-fluorophenyl)propyl)amino)-2,6-difluoro-N-(pyrimidin-4-yl)benzenesulfonamide] | 3.6 | 265 | 24.3
9 | COCc1ccc(F)c([C@H](C)Nc2cc(F)c(S(=O)(=O)Nc3cscn3)cc2Cl)c1 [Example 280, (S)-5-chloro-2-fluoro-4-((1-(2-fluoro-5-(methoxymethyl)phenyl)ethyl)amino)-N-(thiazol-4-yl)benzenesulfonamide] | 8.73 | 1390 | 23.9
10 | C[C@H](Nc1cc(F)c(S(=O)(=O)Nc2cscn2)cc1Cl)c1cc(OC(F)F)ccc1F [Example 281, (S)-5-chloro-4-((1-(5-(difluoromethoxy)-2-fluorophenyl)ethyl)amino)-2-fluoro-N-(thiazol-4-yl)benzenesulfonamide] | 7.06 | 1080 | 11
11 | O=S(=O)(Nc1cscn1)c1cc(Cl)c(NCc2c(F)ccc(F)c2CN2CC3(CCOCC3)C2)cc1F [Example 282, 4-((2-((7-oxa-2-azaspiro[3.5]nonan-2-yl)methyl)-3,6-difluorobenzyl)amino)-5-chloro-2-fluoro-N-(thiazol-4-yl)benzenesulfonamide 2,2,2-trifluoroacetate] | 9.78 | 409 | 6.58
12 | CN(Cc1c(F)ccc(F)c1CN1CCC1)c1cc(F)c(S(=O)(=O)Nc2cscn2)c(F)c1 [Example 284, 4-((2-(azetidin-1-ylmethyl)-3,6-difluorobenzyl)(methyl)amino)-2,6-difluoro-N-(thiazol-4-yl)benzenesulfonamide 2,2,2-trifluoroacetate] | 30 | 1370 | 30
13 | C[C@H](Nc1cc(F)c(S(=O)(=O)Nc2cscn2)cc1Cl)c1cc(F)c(F)cc1F [Example 286, (S)-5-chloro-2-fluoro-N-(thiazol-4-yl)-4-((1-(2,4,5-trifluorophenyl)ethyl)amino)benzenesulfonamide] | 6.84 | 3380 | 8.78
14 | O=S(=O)(Nc1cscn1)c1c(F)cc(N[C@@H]2C[C@H](N3CCC3)c3ccccc32)cc1F [Example 289, 4-(((1R,3S)-3-(azetidin-1-yl)-2,3-dihydro-1H-inden-1-yl)amino)-2,6-difluoro-N-(thiazol-4-yl)benzenesulfonamide] | 4.27 | 556 | 30
15 | O=S(=O)(Nc1cscn1)c1cc(Cl)c(NCc2c(Cl)cccc2CN2CC3(CNC3)C2)cc1F [Example 291, 4-((2-((2,6-diazaspiro[3.3]heptan-2-yl)methyl)-6-chlorobenzyl)amino)-5-chloro-2-fluoro-N-(thiazol-4-yl)benzenesulfonamide 2,2,2-trifluoroacetate] | 14 | 368 | 30
16 | CN1CC2(C1)CN(Cc1cccc(Cl)c1CNc1cc(F)c(S(=O)(=O)Nc3cscn3)cc1Cl)C2 [Example 292, 5-chloro-4-((2-chloro-6-((6-methyl-2,6-diazaspiro[3.3]heptan-2-yl)methyl)benzyl)amino)-2-fluoro-N-(thiazol-4-yl)benzenesulfonamide 2,2,2-trifluoroacetate] | 2.72 | 624 | 8.4
17 | O=S(=O)(Nc1cscn1)c1cc(Cl)c(NCc2c(F)ccc3cc[nH]c23)cc1F [Example 298, 5-chloro-2-fluoro-4-(((6-fluoro-1H-indol-7-yl)methyl)amino)-N-(thiazol-4-yl)benzenesulfonamide] | 7.19 | 785 | 11.3

The next lines start with results.

Row | IC50 (NaV1.1) [µM] | IC50 (NaV1.6) [nM] | SMILES | IC50 (NaV1.5) [µM]
18 | 29.2 | 1370 | O=S(=O)(Nc1ccon1)c1c(F)cc(NCc2ccccc2CN2CCC2)cc1F [Example 259, 4-((2-(azetidin-1-ylmethyl)benzyl)amino)-2,6-difluoro-N-(isoxazol-3-yl)benzenesulfonamide] | 30
19 | 30 | 1880 | O=S(=O)(Nc1cccnn1)c1cc(Cl)c(NCc2c(F)cccc2CN2CCC2)cc1F [Example 260, 4-((2-(azetidin-1-ylmethyl)-6-fluorobenzyl)amino)-5-chloro-2-fluoro-N-(pyridazin-3-yl)benzenesulfonamide] | 30
20 | 14.2 | 187 | C[C@@H](c1cccc(F)c1CNc1cc(F)c(S(=O)(=O)Nc2cscn2)c(F)c1)N1CCC1 [Example 278, (S)-4-((2-(1-(azetidin-1-yl)ethyl)-6-fluorobenzyl)amino)-2,6-difluoro-N-(thiazol-4-yl)benzenesulfonamide formate] | 30
21 | 11.2 | 163 | C[C@H](c1cccc(F)c1CNc1cc(F)c(S(=O)(=O)Nc2cscn2)c(F)c1)N1CCC1 [Example 279, (R)-4-((2-(1-(azetidin-1-yl)ethyl)-6-fluorobenzyl)amino)-2,6-difluoro-N-(thiazol-4-yl)benzenesulfonamide formate] | 30
22 | 5.89 | 625 | Cc1cccc(CN2CCC2)c1CNc1cc(F)c(S(=O)(=O)Nc2cscn2)c(F)c1 [Example 285, 4-((2-(Azetidin-1-ylmethyl)-6-methylbenzyl)amino)-2,6-difluoro-N-(thiazol-4-yl)benzenesulfonamide formate] | 26.6
23 | 30 | 688 | O=S(=O)(Nc1ccon1)c1ccc(NCc2c(F)cccc2CN2CCCC2)c(F)c1F [Example 294, 2,3-difluoro-4-((2-fluoro-6-(pyrrolidin-1-ylmethyl)benzyl)amino)-N-(isoxazol-3-yl)benzenesulfonamide 2,2,2-trifluoroacetate] | 30
24 | 16.9 | 1310 | O=S(=O)(Nc1ccc(F)cn1)c1c(F)cc(NCc2c(F)cccc2CN2CCC2)cc1F [Example 296, 4-((2-(azetidin-1-ylmethyl)-6-fluorobenzyl)amino)-2,6-difluoro-N-(5-fluoropyridin-2-yl)benzenesulfonamide formate] | 30
25 | 0.684 | 3610 | C[C@@H](O)c1cccc(F)c1CNc1cc(F)c(S(=O)(=O)Nc2cscn2)c(F)c1 [Example 299, (R)-2,6-difluoro-4-((2-fluoro-6-(1-hydroxyethyl)benzyl)amino)-N-(thiazol-4-yl)benzenesulfonamide] | 21.6
26 | 30 | 493 | O=S(=O)(Nc1ccon1)c1cc(Cl)c(NCc2c(F)cccc2CN2CCC2)cc1F [Example 301, 4-((2-(azetidin-1-ylmethyl)-6-fluorobenzyl)amino)-5-chloro-2-fluoro-N-(isoxazol-3-yl)benzenesulfonamide formate] | 30
27 | 9.67 | 49 | O=S(=O)(Nc1cscn1)c1c(F)cc(NCc2c(F)cccc2CN2CCC2)cc1F [Example 302, 4-((2-(azetidin-1-ylmethyl)-6-fluorobenzyl)amino)-2,6-difluoro-N-(thiazol-4-yl)benzenesulfonamide 2,2,2-trifluoroacetate] | 23.9
28 | 5.73 | 7 | O=S(=O)(Nc1cscn1)c1c(F)cc(NCc2c(F)cccc2CN2CCC2)c(Cl)c1F [Example 303, 4-((2-(azetidin-1-ylmethyl)-6-fluorobenzyl)amino)-3-chloro-2,6-difluoro-N-(thiazol-4-yl)benzenesulfonamide 2,2,2-trifluoroacetate] | 24.5
